Experimental data taken from US20080299076A1, “Compunds and compositions that cause non-apoptotic cell death and uses thereof” (priority 2006, published 2008).
≈ marks a conversion by molar mass, not a printed value.

Columns and labels:
[1] = system: BJ-TERT/LT/ST/RAS^V12 cells; assay: Alamar Blue viability assay; type: cell-based, human
Protocol: (a) Calu-1 lung carcinoma cells harboring oncogenic KRAS were infected with lentivirus containing shRNAs targeting KRAS or GFP. Sequences of shRNAs are indicated by starting nucleotide (nt) in the KRAS mRNA coding sequence. Cells were treated with erastin and viability measured by Trypan Blue exclusion. (b) Knockdown of KRAS was confirmed by western blot. (c,d) A673 cells harboring oncogenic BRAF were infected with lentiviral shRNAs targeting BRAF exon 5 (c) or the 5′ UTR (d), luciferase (LUC) (c) or GFP (d). Cells were treated with erastin and viability measured using Alamar Blue (c) and Trypan Blue (d). (e) Knockdown of BRAF was confirmed by western blot. […] BJ-TERT/LT/ST/RAS^V12 cells were treated with erastin alone or in with a MEK inhibitor U0126 (20 μM), MEK inhibitor I (10 μM) or MEK 1/2 inhibitor (50 μM). After 48 h, viability was determined using Trypan Blue. (g) Structures of certain erastin and related analogs. (h) and (i) Dose-response curves were measured for erastin A3 and erastin B2 in BJ-TERT/LT/ST/RAS^V12 cells (black squares) or BJ-TERT cells (grey circles). (j) Calu-1 lung carcinoma cells harboring oncogenic KRAS were infected with lentivirus containing shRNAs targeting KRAS or GFP. Sequences of shRNAs are indicated by starting nucleotide (nt) in the KRAS mRNA coding sequence. Cells were treated with erastin and viability (y-axis) measured by Trypan Blue exclusion. Cells were treated with erastin for 24 hours, and percent inhibition of viability (y-axis) measured using Alamar Blue (k) and Trypan Blue (l). (m) Structures of erastin and related analogs. (n) Dose-response curves were measured for erastin A6, erastin B2, erastin A8 and erastin A9 in BJ-TERT/LT/ST/RAS^V12 cells (squares) or BJ-TERT cells (circles) using Alamar Blue.
(§1) Alamar Blue metabolism: 10% Alamar Blue was added to assay plates, which were then incubated for an additional 16 hours. Red fluorescence, resulting from reduction of Alamar Blue, was detected on a Victor3 platereader (ex: 530, em: 590).
Table 2. Activity of RAS-selective lethal compound erastin in tumor cell lines. IC50 values (ng/mL) are shown using the Alamar Blue viability assay. BJ engineered tumor cells express TERT, LT, ST, and oncogenic RAS. Isogenic RAS^V12 lacking cells are identical but lack HRAS^V12. BJ-DRD cells are derived from BJ cells and contain TERT, oncogenic RAS, a truncated from of p53 (p53DD) that disrupts the tetramerization of endogenous p53, a CDK4(R24C) mutant resistant to inhibition by p16INK4A and p151NK4B (the major negative regulators of CDK4) and cyclin D1. These latter protein substitute for LT. HCT-116, A549, Calu-1, and MIA PaCa-2 are tumor cells derived from cancers (colon, lung, lung and pancreatic, respectively) known to have activating mutations in RAS.

BJ-DRD cells = assay: Alamar Blue viability assay; type: cell-based; details: Homo sapiens; BJ-DRD (+RAS)
Text: The engineered tumor cells make use of dominantly acting viral oncoproteins (LT and ST). These viral proteins are involved in cell transformation in specific forms of cancer, namely simian virus 40-induced malignant mesothelioma^134 and other viral oncogenes (E6 and E7) are involved in human papillomavirus-induced cervical carcinoma^135, and have been used to disrupt p53 and pRB function to transform cells in vitro and in vivo^136-138. The selectivity of erastin and the other compounds were further established in a cell line expressing dominant negative inhibitors of p53 and pRB not derived from viral elements. This cell line expresses (i) a truncated form of p53 (p53DD) that disrupts the tetramerization of endogenous p53, (ii) a CDK4^R24C mutant resistant to inhibition by p16INK4A and p15INK4B (the major negative regulators of CDK4) and (iii) cyclin D1. The effects of these RAS^V12-selective compounds at a range of concentrations were tested in these cells, BJ-TERT/p53^DD/CDK4^R24C/D1/ST/RAS^V12 (named BJ-DRD) cells. […] Thus, these compounds (including erastin) are effective in tumor cells transformed without viral proteins (other than ST).
as §1
Table 2. […]

A431NS = assay: Response of tumor cell lines to erastin (dose-response); type: cell-based; details: Epidermoid carcinoma
Protocol: (§2) Given that oncogenic RAS activates at least four downstream pathways, analysis was performed to identify which downstream effects were necessary for erastin sensitivity. In certain embodiments, the invention provides that erastin inhibits growth and kills genuine tumor cells with RAS mutations. In other embodiments, the invention provides measures of the dose-response of 29 tumor cell lines to erastin, wherein there is at least 50% inhibition of viability in 18 of the cell lines (Table 4). Numerous sarcoma-derived tumor cell lines were sensitive to erastin, consistent with the fact that erastin was discovered in an engineered tumor cell line created from human fibroblasts.

C-33A = assay: as above; type: cell-based
Protocol: as §2

MES-SA = assay: as above; type: cell-based
Protocol: as §2

U-2 OS = assay: as above; type: cell-based
Protocol: as §2

[2] = Stability in mouse liver microsomes; type: in vitro ADME; details: after 1 hr
Protocol: The stability of erastin in mouse and human liver microsomes and in mouse and human plasma was assessed. In both human and mouse liver microsomes, after 1 hr, ˜30% of erastin was converted to its primary metabolite (the O-de-ethylated product). In both human and mouse plasma, only ˜10% of erastin was lost after five hours. Thus, erastin has sufficient metabolic and plasma stability to be tested in vivo in mice.

PARP1 = PARP1 cleavage (western blot); type: cell-based, human; details: BJ-TERT/LT/ST/RAS^V12 cells; staurosporine 1 μM 6 h, camptothecin 1 μM 18 h, erastin 20 μg/mL
Protocol: BJ-TERT/LT/ST/RAS^V12 tumor cells were seeded in six-well dishes, incubated overnight at 37° C. with 5% CO2 and were treated with nothing (NT), staurosporine (ST, 1 μM) for 6 h, camptothecin (C, 1 μM) for 18 h, or erastin (20 μg/mL) for the indicated time, lysed and analyzed by western blot with an anti-PARP1 antibody. A relatively high concentration of erastin was used to ensure loss of PARP cleavage was not due to a concentration-dependent effect.
BJ-TERT/LT/ST/RAS^V12 cells were seeded in polystyrene 100×20 mm dishes (Falcon/#353003) in 10 ml of media. Three million cells were seeded in each dish. After overnight incubation at 37° C. with 5% CO2, BJ-TERT/LT/ST/RAS^V12 cells were treated with nothing, staurosporine (1 μM) for 6 h, camptothecin (1 μM) for 18 h or erastin (20 μg/mL) for 6, 10, 12, 12.5, 13, 14, 18 or 26 h, and prepared for western blotting.

With CCOc1ccccc1-n1c(C(C)N2CCN(C(=O)COc3ccc(Cl)cc3)CC2)nc2ccccc2c1=O (stereo not drawn) [erastin, 2-(1-{4-[2-(4-Chloro-phenoxy)-acetyl]-piperazin-1-yl}-ethyl)-3-(2-ethoxy-phenyl)-3H-quinazolin-4-one] the RAS-selective lethality ([1]; HRAS^V12-expressing versus HRAS^V12-deficient cells) was “at least 16 fold”, the RAS selectivity ([1]; IC50 in BJ-TERT/LT/ST versus BJ-TERT/LT/ST/RAS^V12) was over 16 and the IC50 (BJ-DRD cells) was 2.5 µg/mL (≈ 4.57 µM). For the same compound, the Max % killing (A431NS) was 0%, the EC50 (C-33A; Homo sapiens) was 600 nM and the Max % killing (C-33A; cervical carcinoma) was 21%. The EC50 (MES-SA; Homo sapiens) was 3000 nM, the Max % killing (MES-SA; Uterine sarcoma) was 100% and the EC50 (U-2 OS; Homo sapiens, U2OS) was 6000 nM. For the same compound, the Max % killing (U-2 OS; Osteosarcoma) was 96%, the “converted to primary metabolite (O-de-ethylated product)” value [2] was about 30% and the PARP1 cleavage (PARP1) was “unaffected”.
